Measured values from patent publication US20160166598A1, “A METHOD FOR TREATING INFECTION, SEPSIS AND INJURY” (priority 2013, published 2016).

Experiments:
human NK(1) receptor = human NK(1) receptor (Homo sapiens, UniProt P25103); conditions: cited from earlier work
[1] = test system: isolated guinea-pig mesenteric artery; experiment: Relaxation of isolated mesenteric artery, pressure myograph (Ex 4); conditions: for relaxation / artery diameter: endothelium present (adenosine, AL: with or without); for relaxation of isolated intact mesenteric artery: luminal or abluminal, 0.001 to 1 mM
Method: Male guinea pigs (250-300 g) were anesthetised and placed in a cradle and the abdomen opened. Second order mesenteric artery branches were isolated and mounted in a pressure myograph (see FIG. 4) under constant pressure of 60 mmHg and perfusion (luminal flow) of 100 uL/min with Krebs-Henseleit buffer (37° C.). Artery diameter was continuously measured using videomicroscopy (see FIG. 4). For the relaxation/vasodilation experiments arteries were equilibrated and then constricted with 10^−8 M arginine vasopressin (AVP). Adenosine, lidocaine or adenosine-lidocaine together were administered 2) luminally and 2) abluminally and concentration curves were obtained. Stock solutions of adenosine and lidocaine alone or adenosine-lidocaine combined were made in deionized water to 20 mM. A range of volumes were pipetted to provide contact concentrations with the vessel lumen or outer wall that ranged from 0.001 to 1 mM. At the end of experiments, arteries were dilated using calcium-free solution to obtain 100% relaxation. A number of arteries were denuded by introducing 5 ml air into the lumen with flow rate 1000 μl/min. The air outflow was then clamped until the intraluminal pressure reached 70 mmHg, flow rate was reduced to 2 μl/min and the vessel remained pressurized for 10 minutes

[2] = humans, oral and/or intravenous 10, 25, 50, 100 mg/kg; cited from earlier work

human NK(1) receptor, sequence (P25103 whole entry): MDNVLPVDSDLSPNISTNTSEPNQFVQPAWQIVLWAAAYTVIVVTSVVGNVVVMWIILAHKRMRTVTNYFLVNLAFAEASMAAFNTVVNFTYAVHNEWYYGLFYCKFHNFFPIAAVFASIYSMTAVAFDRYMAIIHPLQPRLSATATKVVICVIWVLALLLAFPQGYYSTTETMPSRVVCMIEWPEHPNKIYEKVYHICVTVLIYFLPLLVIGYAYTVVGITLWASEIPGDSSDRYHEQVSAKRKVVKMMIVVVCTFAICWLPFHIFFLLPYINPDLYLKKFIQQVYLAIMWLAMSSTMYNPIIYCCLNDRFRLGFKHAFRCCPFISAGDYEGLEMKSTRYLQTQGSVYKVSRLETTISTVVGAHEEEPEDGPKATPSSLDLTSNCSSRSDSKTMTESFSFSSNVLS

Cc1cccc(C)c1NC(=O)CN1CCN(C2CCN(C(=O)c3cc(C(F)(F)F)cc(C(F)(F)F)c3)C(Cc3ccccc3)C2)CC1 (centres unmarked) [R116301]
Ki (human NK(1) receptor): 0.45 nM
selectivity toward NK(2) and NK(3) receptors (human NK(1) receptor): over 200 fold

Nc1ncnc2c1ncn2[C@@H]1O[C@H](CO)[C@@H](O)[C@H]1O [adenosine]
relaxation / artery diameter [1]: relaxed the mesenteric artery in a dose dependent manner
relaxation of isolated intact mesenteric artery [1]: increased relaxation

CCN(CC)CC(=O)Nc1c(C)cccc1C [lidocaine]
relaxation ([1]; endothelium absent): relaxed the artery
relaxation / artery diameter [1]: did not significantly change mesenteric artery diameter
relaxation of isolated intact mesenteric artery [1]: failed to produce relaxation

NC(=O)c1ncn([C@@H]2O[C@H](CO)[C@@H](O)[C@H]2O)c1N [Acadesine, 5-amino-4-imidazole carboxamide ribonucleoside]
safety [2]: safe in humans
